According to the supplement of paper PMC4862054:

How the values were obtained:
Settings in all cases: incubation time: 72 h
MFM-223 [1] = assay: normalised viability (% of control), CellTiter-Blue; higher = more viable cells (about 100 = DMSO control)
Procedure, shortened: (§1)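 Each entry is normalised viability at a single listed concentration within a series. It comes from breast cancer cell lines incubated 72 h with compound in 384-well plates, then measured with CellTiter-Blue fluorescence at 560/590 nm. Every plate was normalised between vehicle (100) and a positive kill control (0).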

CAL-85-1 = assay: as above
Procedure, shortened: as §1

MDA-MB-231 [2] = assay: as above
Procedure, shortened: as §1

CAL-51 [3] = assay: as above
Procedure, shortened: as §1

MDA-MB-453 = assay: as above
Procedure, shortened: as §1

BT-474 = assay: as above
Procedure, shortened: as §1

DU-4475 [4] = assay: as above
Procedure, shortened: as §1

HDQ-P1 [5] = assay: as above
Procedure, shortened: as §1

SK-BR-3 [6] = assay: as above
Procedure, shortened: as §1

CAL-120 [7] = assay: as above
Procedure, shortened: as §1

BT-549 = assay: as above
Procedure, shortened: as §1

MDA-MB-468 = assay: as above
Procedure, shortened: as §1

HCC1937 = assay: as above
Procedure, shortened: as §1

CAL-148 = assay: as above
Procedure, shortened: as §1

HCC1143 [8] = assay: as above
Procedure, shortened: as §1

HCC1599 = assay: as above
Procedure, shortened: as §1

MDA-MB-436 = assay: as above
Procedure, shortened: as §1

MFM-223 [9] = assay: normalised viability (% of control), CellTiter-Blue; higher = more viable cells (100 = DMSO, 0 = benzethonium chloride kill control)
Procedure, shortened: as §1

MDA-MB-231 [10] = assay: as above
Procedure, shortened: as §1

CAL-51 [11] = assay: as above
Procedure, shortened: as §1

DU-4475 [12] = assay: as above
Procedure, shortened: as §1

HDQ-P1 [13] = assay: as above
Procedure, shortened: as §1

SK-BR-3 [14] = assay: as above
Procedure, shortened: as §1

Hs578T = assay: as above
Procedure, shortened: as §1

CAL-120 [15] = assay: as above
Procedure, shortened: as §1

HCC1143 [16] = assay: as above
Procedure, shortened: as §1

c1cc(CN2CCCNCCNCCCNCC2)ccc1CN1CCCNCCNCCCNCC1 [Plerixafor]
Settings | normalised viability [%]
BT-474, 2.5 nM | 101
BT-474, 250 nM | 117
BT-474, 2500 nM | 97.6
BT-549, 2.5 nM | 92.7
BT-549, 250 nM | 95.9
BT-549, 2500 nM | 120
CAL-51 [3], 0.75 nM | 106
CAL-51 [3], 7.5 nM | 99
CAL-51 [3], 25 nM | 103
CAL-51 [11], 0.25 nM | 103
CAL-85-1, 0.75 nM | 91.9
CAL-85-1, 7.5 nM | 91.3
CAL-85-1, 25 nM | 89.2
CAL-120 [7], 2.5 nM | 93.1
CAL-120 [7], 250 nM | 91.4
CAL-120 [7], 2500 nM | 96
CAL-120 [15], 0.25 nM | 90
CAL-148, 0.75 nM | 77.3
CAL-148, 7.5 nM | 89.2
CAL-148, 25 nM | 82.7
DU-4475 [4], 0.75 nM | 91.4
DU-4475 [4], 7.5 nM | 97.3
DU-4475 [4], 25 nM | 97.9
DU-4475 [12], 0.25 nM | 105
HCC1143 [8], 2.5 nM | 81
HCC1143 [8], 250 nM | 87.4
HCC1143 [8], 2500 nM | 83.2
HCC1143 [16], 0.25 nM | 90.9
HCC1599, 2.5 nM | 107
HCC1599, 250 nM | 98.7
HCC1599, 2500 nM | 115
HCC1937, 2.5 nM | 91.3
HCC1937, 250 nM | 103
HCC1937, 2500 nM | 111
HDQ-P1 [5], 0.75 nM | 106
HDQ-P1 [5], 7.5 nM | 123
HDQ-P1 [5], 25 nM | 111
HDQ-P1 [13], 0.25 nM | 104
Hs578T, 0.25 nM | 104
MDA-MB-231 [2], 2.5 nM | 89.1
MDA-MB-231 [2], 250 nM | 98.5
MDA-MB-231 [2], 2500 nM | 102
MDA-MB-231 [10], 0.25 nM | 93.8
MDA-MB-436, 2.5 nM | 116
MDA-MB-436, 250 nM | 107
MDA-MB-436, 2500 nM | 118
MDA-MB-453, 0.75 nM | 116
MDA-MB-453, 7.5 nM | 114
MDA-MB-453, 25 nM | 106
MDA-MB-468, 2.5 nM | 109
MDA-MB-468, 250 nM | 112
MDA-MB-468, 2500 nM | 108
MFM-223 [1], 2.5 nM | 109
MFM-223 [1], 250 nM | 104
MFM-223 [1], 2500 nM | 101
MFM-223 [9], 0.25 nM | 99
SK-BR-3 [6], 2.5 nM | 101
SK-BR-3 [6], 250 nM | 99.7
SK-BR-3 [6], 2500 nM | 106
SK-BR-3 [14], 0.25 nM | 91.5

C[C@]12C=CC(=O)C=C1CC[C@@H]1[C@@H]2[C@@H](O)C[C@@]2(C)[C@H]1CC[C@]2(O)C(=O)CO [Prednisolone]
Settings | normalised viability [%]
BT-474, 10 nM | 125
BT-474, 1000 nM | 98.8
BT-474, 10000 nM | 100
BT-549, 10 nM | 111
BT-549, 1000 nM | 92.2
BT-549, 10000 nM | 105
CAL-51 [3], 3 nM | 102
CAL-51 [3], 30 nM | 98.3
CAL-51 [3], 100 nM | 98.4
CAL-51 [11], 1 nM | 104
CAL-85-1, 3 nM | 101
CAL-85-1, 30 nM | 105
CAL-85-1, 100 nM | 119
CAL-120 [7], 10 nM | 87.5
CAL-120 [7], 1000 nM | 73.7
CAL-120 [7], 10000 nM | 86.8
CAL-120 [15], 1 nM | 83.5
CAL-148, 3 nM | 93.8
CAL-148, 30 nM | 118
CAL-148, 100 nM | 107
DU-4475 [4], 3 nM | 107
DU-4475 [4], 30 nM | 116
DU-4475 [4], 100 nM | 98.1
DU-4475 [12], 1 nM | 95.6
HCC1143 [8], 10 nM | 98
HCC1143 [8], 1000 nM | 87.9
HCC1143 [8], 10000 nM | 96.3
HCC1143 [16], 1 nM | 95.1
HCC1599, 10 nM | 111
HCC1599, 1000 nM | 92.2
HCC1599, 10000 nM | 84.9
HCC1937, 10 nM | 91.7
HCC1937, 1000 nM | 108
HCC1937, 10000 nM | 99.1
HDQ-P1 [5], 3 nM | 112
HDQ-P1 [5], 30 nM | 124
HDQ-P1 [5], 100 nM | 108
HDQ-P1 [13], 1 nM | 85.7
Hs578T, 1 nM | 122
MDA-MB-231 [2], 10 nM | 113
MDA-MB-231 [2], 1000 nM | 129
MDA-MB-231 [2], 10000 nM | 117
MDA-MB-231 [10], 1 nM | 105
MDA-MB-436, 10 nM | 82.4
MDA-MB-436, 1000 nM | 73.5
MDA-MB-436, 10000 nM | 108
MDA-MB-453, 3 nM | 107
MDA-MB-453, 30 nM | 106
MDA-MB-453, 100 nM | 95.5
MDA-MB-468, 10 nM | 102
MDA-MB-468, 1000 nM | 115
MDA-MB-468, 10000 nM | 101
MFM-223 [1], 10 nM | 95.7
MFM-223 [1], 1000 nM | 100
MFM-223 [1], 10000 nM | 96.9
MFM-223 [9], 1 nM | 102
SK-BR-3 [6], 10 nM | 114
SK-BR-3 [6], 1000 nM | 101
SK-BR-3 [6], 10000 nM | 89.3
SK-BR-3 [14], 1 nM | 130

CC[C@@]1(O)C(=O)OCc2c1cc1n(c2=O)Cc2cc3c(CN(C)C)c(O)ccc3nc2-1 [Topotecan]
Settings | normalised viability [%]
BT-474, 1 nM | 127
BT-474, 100 nM | 112
BT-474, 1000 nM | 77.9
BT-549, 1 nM | 85.9
BT-549, 100 nM | 75.3
BT-549, 1000 nM | 62.9
CAL-51 [3], 0.3 nM | 99
CAL-51 [3], 3 nM | 96.5
CAL-51 [3], 10 nM | 96.8
CAL-51 [11], 0.1 nM | 92.5
CAL-85-1, 0.3 nM | 93.2
CAL-85-1, 3 nM | 85.2
CAL-85-1, 10 nM | 96.9
CAL-120 [7], 1 nM | 86.2
CAL-120 [7], 100 nM | 54.8
CAL-120 [7], 1000 nM | 32.1
CAL-120 [15], 0.1 nM | 85.9
CAL-148, 0.3 nM | 84.5
CAL-148, 3 nM | 111
CAL-148, 10 nM | 96.5
DU-4475 [4], 0.3 nM | 88.4
DU-4475 [4], 3 nM | 88.4
DU-4475 [4], 10 nM | 78.5
DU-4475 [12], 0.1 nM | 102
HCC1143 [8], 1 nM | 79.9
HCC1143 [8], 100 nM | 79.1
HCC1143 [8], 1000 nM | 41.9
HCC1143 [16], 0.1 nM | 98.3
HCC1599, 1 nM | 91.5
HCC1599, 100 nM | 82.3
HCC1599, 1000 nM | 64
HCC1937, 1 nM | 96.9
HCC1937, 100 nM | 40.6
HCC1937, 1000 nM | 26.2
HDQ-P1 [5], 0.3 nM | 112
HDQ-P1 [5], 3 nM | 105
HDQ-P1 [5], 10 nM | 105
HDQ-P1 [13], 0.1 nM | 115
Hs578T, 0.1 nM | 110
MDA-MB-231 [2], 1 nM | 97
MDA-MB-231 [2], 100 nM | 80.5
MDA-MB-231 [2], 1000 nM | 59.8
MDA-MB-231 [10], 0.1 nM | 98.6
MDA-MB-436, 1 nM | 110
MDA-MB-436, 100 nM | 75.5
MDA-MB-436, 1000 nM | 44.6
MDA-MB-453, 0.3 nM | 103
MDA-MB-453, 3 nM | 107
MDA-MB-453, 10 nM | 102
MDA-MB-468, 1 nM | 108
MDA-MB-468, 100 nM | 45.6
MDA-MB-468, 1000 nM | 12.8
MFM-223 [1], 1 nM | 105
MFM-223 [1], 100 nM | 88.2
MFM-223 [1], 1000 nM | 53.5
MFM-223 [9], 0.1 nM | 100
SK-BR-3 [6], 1 nM | 105
SK-BR-3 [6], 100 nM | 48.7
SK-BR-3 [6], 1000 nM | 24.8
SK-BR-3 [14], 0.1 nM | 92.4
